Test results taken from PubChem BioAssay AID248 (DTP/NCI, 2004).
Where “and” joins values, the source holds several entries; their conditions need not be identical. Equal entries are not always repeated. Toxic doses and inconclusive results are not listed.

Tested on: L1210 leukemia ip in BDF1 mice, survival T/C
Assay: NCI In Vivo Anticancer Drug Screen. Data for tumor model L1210 Leukemia (intraperitoneal) in B6D2F1 (BDF1) mice
Settings: endpoint: mean survival time, higher = longer survival
Procedure, shortened: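 Survival endpoint. Drug-treated group vs vehicle group, expressed as T divided by C. Tumor passaged by transplantation.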

[1] = dose: 100.0 mg/kg/injection, schedule: Q01DX009 (ip), vehicle: saline with Tween-80
[2] = dose: 200.0 mg/kg/injection, schedule: Q01DX009 (ip), vehicle: saline with Tween-80
[3] = dose: 400.0 mg/kg/injection, schedule: Q01DX009 (ip), vehicle: saline with Tween-80
[4] = dose: 100.0 mg/kg/injection, schedule: Q01DX009 (ip), vehicle: saline
[5] = dose: 100.0 mg/kg/injection, schedule: Q04DX003 (ip), vehicle: saline with Tween-80
[6] = dose: 200.0 mg/kg/injection, schedule: Q01DX009 (ip), vehicle: saline
[7] = dose: 200.0 mg/kg/injection, schedule: Q04DX003 (ip), vehicle: saline with Tween-80
[8] = dose: 400.0 mg/kg/injection, schedule: Q01DX009 (ip), vehicle: saline
[9] = dose: 400.0 mg/kg/injection, schedule: Q04DX003 (ip), vehicle: saline with Tween-80
[10] = dose: 100.0 mg/kg/injection, schedule: Q01DX001 (ip), vehicle: saline with Tween-80
[11] = dose: 200.0 mg/kg/injection, schedule: Q01DX001 (ip), vehicle: saline with Tween-80
[12] = dose: 400.0 mg/kg/injection, schedule: Q01DX001 (ip), vehicle: saline with Tween-80
[13] = dose: 100.0 mg/kg/injection, schedule: Q04DX002 (ip), vehicle: Klucel (hydroxypropylcellulose) (HPC)
[14] = dose: 200.0 mg/kg/injection, schedule: Q04DX002 (ip), vehicle: Klucel (hydroxypropylcellulose) (HPC)
[15] = dose: 400.0 mg/kg/injection, schedule: Q04DX002 (ip), vehicle: Klucel (hydroxypropylcellulose) (HPC)
[16] = dose: 25.0 mg/kg/injection, schedule: Q01DX001 (ip), vehicle: saline with Tween-80
[17] = dose: 50.0 mg/kg/injection, schedule: Q01DX001 (ip), vehicle: saline with Tween-80
[18] = dose: 100.0 mg/kg/injection, schedule: Q01DX001 (ip), vehicle: saline
[19] = dose: 200.0 mg/kg/injection, schedule: Q01DX001 (ip), vehicle: saline
[20] = dose: 400.0 mg/kg/injection, schedule: Q01DX001 (ip), vehicle: saline
[21] = dose: 25.0 mg/kg/injection, schedule: Q01DX009 (ip), vehicle: saline with Tween-80
[22] = dose: 50.0 mg/kg/injection, schedule: Q01DX009 (ip), vehicle: saline with Tween-80
[23] = dose: 100.0 mg/kg/injection, schedule: Q04DX003 (ip), vehicle: saline
[24] = dose: 200.0 mg/kg/injection, schedule: Q04DX003 (ip), vehicle: saline
[25] = dose: 400.0 mg/kg/injection, schedule: Q04DX003 (ip), vehicle: saline
[26] = dose: 100.0 mg/kg/injection, schedule: Q01DX009 (ip), vehicle: Klucel (hydroxypropylcellulose) (HPC)
[27] = dose: 200.0 mg/kg/injection, schedule: Q01DX009 (ip), vehicle: Klucel (hydroxypropylcellulose) (HPC)
[28] = dose: 400.0 mg/kg/injection, schedule: Q01DX009 (ip), vehicle: Klucel (hydroxypropylcellulose) (HPC)

## O=c1[nH]c(C(F)(F)F)nc2[nH]ncc12
dose: 29.0 mg/kg/injection, schedule: Q01DX Z (ip), vehicle: methylcellulose (MC)
  T/C: 102 % of control
dose: 45.0 mg/kg/injection, schedule: Q01DX Z (ip), vehicle: methylcellulose (MC)
  T/C: 106 % of control
dose: 67.0 mg/kg/injection, schedule: Q01DX Z (ip), vehicle: methylcellulose (MC)
  T/C: 108 % of control
dose: 100.0 mg/kg/injection, schedule: Q01DX Z (ip), vehicle: methylcellulose (MC)
  T/C: 93 % of control

## CC(=O)CC(C)=NCCN=C(C)CC(C)=O
[1]
  T/C: 91 % of control
[2]
  T/C: 94 % of control
[3]
  T/C: 92 % of control

## Cc1cccc2c1/C(=N\Nc1ccc([N+](=O)[O-])cc1[N+](=O)[O-])CC(C)(C)C2
[1]
  T/C: 104 % of control
[2]
  T/C: 100 % of control
[3]
  T/C: 100 % of control

## O=C1c2cccc3c2C2(C45c6c7cccc6C(=O)c6cccc(c64)C(=O)c4cccc(c45)C7=O)c4c1cccc4C(=O)c1cccc(c12)C3=O
[4]
  T/C: 103 % of control
[5]
  T/C: 94 % of control
[6]
  T/C: 95 % of control
[7]
  T/C: 107 % of control
[8]
  T/C: 95 % of control
[9]
  T/C: 94 % of control

## CCCCCCCCCCP(=O)(CCCCCCCCCC)C(O)C(Cl)(Cl)Cl (stereo not drawn)
[10]
  T/C: 91 % of control
[11]
  T/C: 93 % of control
[12]
  T/C: 94 % of control

## Cc1ccc(Nc2nc(N)nc(N)c2N)cc1C
dose: 25.0 mg/kg/injection, schedule: Q01DX Z (ip), vehicle: saline
  T/C: 93 % of control

## NC(=O)NC(=O)COc1ccc(Cl)cc1Cl
dose: 100.0 mg/kg/injection, schedule: Q04DX002 (ip), vehicle: saline + alcohol
  T/C: 96 % of control
dose: 200.0 mg/kg/injection, schedule: Q04DX002 (ip), vehicle: saline + alcohol
  T/C: 103 % of control

## O=C(O)CCc1ccncc1
dose: 100.0 mg/kg/injection, schedule: Q04DX002 (ip), vehicle: saline
  T/C: 100 % of control
dose: 200.0 mg/kg/injection, schedule: Q04DX002 (ip), vehicle: saline
  T/C: 122 % of control
dose: 400.0 mg/kg/injection, schedule: Q04DX002 (ip), vehicle: saline
  T/C: 103 % of control

## Cc1ccc2c(c1)P(=O)(O)c1cc(F)ccc1O2
dose: 50.0 mg/kg/injection, schedule: Q01DX009 (ip), vehicle: saline
  T/C: 105 % of control
[4]
  T/C: 112 % of control
[6]
  T/C: 112 % of control
[8]
  T/C: 108 % of control

## CCOC(=O)C(=CNc1cc(N)nc(SC)n1)C(=O)OCC
[13]
  T/C: 114 % of control
[14]
  T/C: 103 % of control
[15]
  T/C: 100 % of control

## CC1(C)N=C(N)N=C(N)N1c1cc(Cl)cc(CCNC(=O)Nc2ccc(S(=O)(=O)F)cc2)c1
[16]
  T/C: 98 % of control
[17]
  T/C: 98 % of control
[10]
  T/C: 106 % of control

## NC(CSC(c1ccccc1)(c1ccccc1)c1ccc(CO)cc1)C(=O)O (stereo not drawn)
[8]
  T/C: 150 % of control and 157 % of control
dose: 600.0 mg/kg/injection, schedule: Q01DX009 (ip), vehicle: saline
  T/C: 168 % of control

## CC(C)OC(=O)C(C)OC(=O)OCCOCCOC(=O)OC(C)C(=O)OC(C)C (stereo not drawn)
[18]
  T/C: 96 % of control
[19]
  T/C: 100 % of control
[20]
  T/C: 100 % of control

## CCOC(=O)CS(=O)(=O)CS(=O)(=O)CC(=O)OCC
[13]
  T/C: 94 % of control
[14]
  T/C: 100 % of control
[15]
  T/C: 100 % of control

## S=c1[nH]nc2n1NC(c1ccoc1)=NN2
[21]
  T/C: 96 % of control
[22]
  T/C: 95 % of control
[1]
  T/C: 97 % of control

## Cc1ccc([N+](=O)[O-])cc1NC(=O)OCCOc1ccccc1
[4]
  T/C: 90 % of control
[6]
  T/C: 103 % of control
[8]
  T/C: 92 % of control

## CNC(=O)CCCCC(=O)NC
[4]
  T/C: 107 % of control
[23]
  T/C: 103 % of control
[6]
  T/C: 102 % of control
[24]
  T/C: 98 % of control
[8]
  T/C: 108 % of control
[25]
  T/C: 101 % of control

## CN(C)Cc1ccccc1C(O)(c1ccccc1)c1ccccc1CN(C)C
dose: 8.0 mg/kg/injection, schedule: Q01DX015 (ip), vehicle: carboxymethylcellulose (CMC)
  T/C: 91 % of control
dose: 16.0 mg/kg/injection, schedule: Q01DX015 (ip), vehicle: carboxymethylcellulose (CMC)
  T/C: 90 % of control
dose: 32.0 mg/kg/injection, schedule: Q01DX015 (ip), vehicle: carboxymethylcellulose (CMC)
  T/C: 88 % of control

## CCOC(=O)c1c[nH]c2ccc(OC)cc2c1=O
[4]
  T/C: 96 % of control
[23]
  T/C: 98 % of control
[6]
  T/C: 98 % of control
[24]
  T/C: 102 % of control
[8]
  T/C: 96 % of control
[25]
  T/C: 100 % of control

## C1C2C3OC3C1C1C2C2C3CC(C4OC34)C12 (stereo not drawn)
[1]
  T/C: 94 % of control
[5]
  T/C: 100 % of control
[2]
  T/C: 94 % of control
[7]
  T/C: 101 % of control
[3]
  T/C: 94 % of control
[9]
  T/C: 97 % of control

## CC1CCCCN1CC(Cl)(Cl)Cl (stereo not drawn)
[18]
  T/C: 89 % of control
[19]
  T/C: 94 % of control

## OCCCCC(O)c1ccccc1 (stereo not drawn)
[4]
  T/C: 107 % of control
[23]
  T/C: 116 % of control
[6]
  T/C: 96 % of control
[24]
  T/C: 107 % of control
[8]
  T/C: 100 % of control
[25]
  T/C: 112 % of control

## CC(=O)NC(COC(C)=O)C1OC(C)(C)OC1C(COC(C)=O)OC(C)=O (stereo not drawn)
[18]
  T/C: 101 % of control
[19]
  T/C: 104 % of control
[20]
  T/C: 98 % of control

## Cc1nc(N)nc(N)c1[N+](=O)[O-]
dose: 65.0 mg/kg/injection, schedule: Q01DX Z (oral), vehicle: methylcellulose (MC)
  T/C: 105 % of control
dose: 125.0 mg/kg/injection, schedule: Q01DX Z (oral), vehicle: methylcellulose (MC)
  T/C: 100 % of control
dose: 250.0 mg/kg/injection, schedule: Q01DX Z (oral), vehicle: methylcellulose (MC)
  T/C: 100 % of control

## CCOC(=O)c1ccc(NCc2cnc(N)c(C#N)n2)cc1
[5]
  T/C: 91 % of control
[7]
  T/C: 95 % of control
[9]
  T/C: 95 % of control

## [O-]/[N+](=N/O)c1ccc(Cl)cc1
[16]
  T/C: 96 % of control
[21]
  T/C: 100 % of control
dose: 25.0 mg/kg/injection, schedule: Q04DX003 (ip), vehicle: saline with Tween-80
  T/C: 103 % of control
[17]
  T/C: 92 % of control
[22]
  T/C: 94 % of control
dose: 50.0 mg/kg/injection, schedule: Q04DX003 (ip), vehicle: saline with Tween-80
  T/C: 94 % of control
[10]
  T/C: 100 % of control
[5]
  T/C: 92 % of control

## Cc1ccc(C(=O)CCCCCC(=O)c2ccc(C)cc2O)c(O)c1
dose: 100.0 mg/kg/injection, schedule: Q01DX001 (ip), vehicle: Klucel (hydroxypropylcellulose) (HPC)
  T/C: 98 % of control
dose: 200.0 mg/kg/injection, schedule: Q01DX001 (ip), vehicle: Klucel (hydroxypropylcellulose) (HPC)
  T/C: 98 % of control
dose: 400.0 mg/kg/injection, schedule: Q01DX001 (ip), vehicle: Klucel (hydroxypropylcellulose) (HPC)
  T/C: 95 % of control

## Cc1ccc(Cl)cc1NC(=O)C(Cl)Cl
[26]
  T/C: 92 % of control
[27]
  T/C: 89 % of control
[28]
  T/C: 90 % of control

## CCCCC1C(=O)N=C2C=CC=CN2C1=O (stereo not drawn)
dose: 25.0 mg/kg/injection, schedule: Q01DX009 (ip), vehicle: Klucel (hydroxypropylcellulose) (HPC)
  T/C: 102 % of control
dose: 50.0 mg/kg/injection, schedule: Q01DX009 (ip), vehicle: Klucel (hydroxypropylcellulose) (HPC)
  T/C: 100 % of control
[26]
  T/C: 110 % of control
dose: 100.0 mg/kg/injection, schedule: Q04DX003 (ip), vehicle: other
  T/C: 104 % of control
dose: 200.0 mg/kg/injection, schedule: Q04DX003 (ip), vehicle: other
  T/C: 102 % of control

## CCCCCN1C(=O)NC(=O)C(Cl)C1=O (stereo not drawn)
[18]
  T/C: 89 % of control

## O=C1c2cccc3cccc(c23)C(=O)N1Cc1ccco1
[26]
  T/C: 94 % of control
[27]
  T/C: 89 % of control
[28]
  T/C: 93 % of control

## COc1cc(Cc2c(C=O)[nH]c(=S)[nH]c2=O)cc(OC)c1OC
[10]
  T/C: 90 % of control
[11]
  T/C: 89 % of control
[12]
  T/C: 96 % of control
